Data on 17 compounds can be found in patent publication US20200179428A1, “CYCLIC PHOSPHATE SUBSTITUTED NUCLEOSIDE DERIVATIVES AND METHODS OF USE THEREOF FOR THE TREATMENT OF VIRAL DISEASES” (priority 2016, published 2020).

One data set concerns replicon cells (1b-Con1). Nature of the data set: Replicon activity assay (replicon RNA level by real-time RT-PCR, Taqman). Format: cell-based. The note with it: Hepatitis C virus, HCV replicon genotype 1b; read-out: EC50 (1b) Range. The protocol:
(§1) To measure cell-based anti-HCV activity of the compounds of the present invention, replicon cells (1b-Con1) are seeded at 5000 cells/well in 96-well plates one day prior to treatment with a compound of the invention. Various concentrations of a test compound of the invention in DMSO are then added to the replicon cells, with the final concentration of DMSO at 0.5% and fetal bovine serum at 10% in the assay media. Cells are harvested three days post-dosing, and the replicon RNA level is determined using real-time RT-PCR (Taqman assay) with GAPDH RNA as endogenous control. EC50 values are calculated from experiments with 10 serial twofold dilutions of the inhibitor in triplicate. To measure cytotoxicity in replicon cells of an inhibitor, an MTS assay is performed according to the manufacturer's protocol for CellTiter 96 Aqueous One Solution Cell Proliferation Assay (Promega, Cat # G3580) three days post dosing on cells treated identically as in replicon activity assays. […] Cytotoxicity in other types of cells may be measured using the same MTS protocol.

The nature of data set [1]: Cytotoxicity MTS assay (CellTiter 96 Aqueous One Solution) in replicon cells. The note with it: HCV replicon cells (1b-Con1); EDU; read-out: CC50 (EDU) Range. Format: cell-based. As for the experimental part:
as §1

On to `CO[C@H](CCOP1(=O)OC[C@H]2O[C@@H](n3ccc(=O)[nH]c3=O)[C@](C)(Cl)[C@@H]2O1)C(=O)OC(C)C` (stereo partly shown) [Compound 37A], for which, in the data set with replicon cells (1b-Con1), the EC50 lay in the range of 0.25 to 1 µM. The CC50 at 3 days in data set [1] is greater than 50 µM.

Consider `CC(C)OC(=O)C(CCOP1(=O)OC[C@H]2O[C@@H](n3ccc(=O)[nH]c3=O)[C@](C)(Cl)[C@@H]2O1)C(=O)OC(C)C` (stereo partly shown) [Compound 38A], for which the EC50 with replicon cells (1b-Con1) is no more than 0.25 µM. The CC50 at 3 days in data set [1] is greater than 50 µM.

For `CC(C)OC(=O)C(C)CCOP1(=O)OC[C@H]2O[C@@H](n3ccc(=O)[nH]c3=O)[C@](C)(Cl)[C@@H]2O1` (stereo partly shown) [Compound 39A], the EC50 with replicon cells (1b-Con1) was no more than 0.25 µM. In data set [1], the CC50 at 3 days was greater than 50 µM.

Turning to `C#C[C@]1(C)[C@@H]2O[P@@](=O)(OC[C@H](NC(=O)OC)C(=O)OC(C)C)OC[C@H]2O[C@H]1n1ccc(=O)[nH]c1=O` [Compound 40A], the half-maximal effective concentration (EC50) with replicon cells (1b-Con1) is greater than 10 µM. Also, the CC50 at 3 days in data set [1] is greater than 50 µM.

For the compound `C#C[C@]1(C)[C@@H]2O[P@](=O)(OC[C@H](NC(=O)OC)C(=O)OC(C)C)OC[C@H]2O[C@H]1n1ccc(=O)[nH]c1=O` [Compound 40B], the 50% effective concentration (EC50) in the data set on replicon cells (1b-Con1) is greater than 10 µM. In addition, the CC50 at 3 days in data set [1] is greater than 50 µM.

On to `COC(=O)N[C@H](CO[P@@]1(=O)OC[C@H]2O[C@@H](n3ccc(=O)[nH]c3=O)[C@](C)(C#N)[C@@H]2O1)C(=O)OC(C)C` [Compound 41A], for which the concentration for a half-maximal effect (EC50) in the data set with replicon cells (1b-Con1) was greater than 10 µM. Further, in data set [1], the CC50 at 3 days was greater than 50 µM.

For the compound `COC(=O)N[C@H](CO[P@]1(=O)OC[C@H]2O[C@@H](n3ccc(=O)[nH]c3=O)[C@](C)(C#N)[C@@H]2O1)C(=O)OC(C)C` [Compound 41B], in the data set on replicon cells (1b-Con1), the EC50 was greater than 10 µM. The CC50 at 3 days in data set [1] was greater than 50 µM.

With `COC(=O)N[C@@H](CCO[P@@]1(=O)OC[C@H]2O[C@@H](n3ccc(=O)[nH]c3=O)[C@](C)(N)[C@@H]2O1)C(=O)OC(C)C` [Compound 42A], the EC50 in the data set with replicon cells (1b-Con1) was greater than 10 µM. The CC50 at 3 days in data set [1] was greater than 50 µM.

As for `COC(=O)N[C@@H](CCO[P@]1(=O)OC[C@H]2O[C@@H](n3ccc(=O)[nH]c3=O)[C@](C)(N)[C@@H]2O1)C(=O)OC(C)C` [Compound 42B], the EC50 in the data set on replicon cells (1b-Con1) was greater than 10 µM. The CC50 at 3 days in data set [1] is greater than 50 µM.

Consider `C#C[C@]1(C)[C@@H]2O[P@@](=O)(OCC[C@H](NC(=O)OC)C(=O)OC(C)C)OC[C@H]2O[C@H]1n1ccc(=O)[nH]c1=O` [Compound 43A], for which the concentration for a half-maximal effect (EC50) in the data set on replicon cells (1b-Con1) is greater than 10 µM. Also, the CC50 at 3 days in data set [1] is greater than 50 µM.

With `C#C[C@]1(C)[C@@H]2O[P@](=O)(OCC[C@H](NC(=O)OC)C(=O)OC(C)C)OC[C@H]2O[C@H]1n1ccc(=O)[nH]c1=O` [Compound 43B], the EC50 in the data set on replicon cells (1b-Con1) is greater than 10 µM. Further, the CC50 at 3 days in data set [1] is greater than 50 µM.

`C#C[C@]1(C)[C@@H]2O[P@@](=O)(OCCC(CO)C(=O)OC(C)C)OC[C@H]2O[C@H]1n1ccc(=O)[nH]c1=O` (stereo partly shown) [Compound 44A]: the EC50 with replicon cells (1b-Con1) is greater than 10 µM. In addition, the CC50 at 3 days in data set [1] is greater than 50 µM.

As for `C#C[C@]1(C)[C@@H]2O[P@](=O)(OCCC(CO)C(=O)OC(C)C)OC[C@H]2O[C@H]1n1ccc(=O)[nH]c1=O` (stereo partly shown) [Compound 44B], in the data set on replicon cells (1b-Con1), the EC50 is greater than 10 µM. In addition, the CC50 at 3 days in data set [1] is greater than 50 µM.

Take `CO[C@H](CCO[P@@]1(=O)OC[C@H]2O[C@@H](n3ccc(=O)[nH]c3=O)[C@](C)(N)[C@@H]2O1)C(=O)OC(C)C` [Compound 45A]: in the data set with replicon cells (1b-Con1), the EC50 lay within 1 to 10 µM. Moreover, in data set [1], the CC50 at 3 days is greater than 50 µM.

For `CO[C@H](CCO[P@]1(=O)OC[C@H]2O[C@@H](n3ccc(=O)[nH]c3=O)[C@](C)(N)[C@@H]2O1)C(=O)OC(C)C` [Compound 45B], the 50% effective concentration (EC50) in the data set with replicon cells (1b-Con1) is greater than 10 µM. The 50% cytotoxic concentration (CC50) at 3 days in data set [1] was greater than 50 µM.

Consider `C[C@@]1(N)[C@@H]2O[P@@](=O)(OCCC3CCOC3=O)OC[C@H]2O[C@H]1n1ccc(=O)[nH]c1=O` (stereo partly shown) [Compound 46A], for which, in the data set on replicon cells (1b-Con1), the EC50 was greater than 10 µM. The CC50 at 3 days in data set [1] was greater than 50 µM.

For the compound `C[C@@]1(N)[C@@H]2O[P@](=O)(OCCC3CCOC3=O)OC[C@H]2O[C@H]1n1ccc(=O)[nH]c1=O` (stereo partly shown) [Compound 46B], the EC50 in the data set with replicon cells (1b-Con1) is greater than 10 µM. In data set [1], the CC50 at 3 days was greater than 50 µM.
